In data set [1] the test system is OV90. Put plainly: MTT cytotoxicity assay, OV90. The conditions noted are these: OV90, wild-type BRCA1, 72 h; read-out: IC50, mean ± SEM. It is filed as cell-based, human. As to the method: (§1) The MTT cytotoxicity assay was performed by incubating with MTT and monitoring the MTT formazan formed by viable cells with a microplate reader at a wavelength of 560 nm; the survival ratio was determined using the formula: (Atest−Ablank)/(Acontrol−Ablank)×100%. The cytotoxicity was determined in 96-well plates using the semiautomatic fluorescence-based Digital Imaging Microscopy System (DIMSCAN). DIMSCAN uses digital imaging microscopy to quantify viable cells, which selectively accumulate FDA (fluorescein diacetate; Alfa Aesar, Ward Hill, Mass.). DIMSCAN is capable of measuring cytotoxicity over a 4 log dynamic range by quantifying total fluorescence per well (which is proportional to the number of viable cells) after elimination of the background fluorescence by digital thresholding and eosin Y (Mallinckrodt Baker, Center Valley, Pa.) quenching. Cells were seeded into 96-well plates in 100 μL of complete medium at 2,000 to 5,000 cells per well, depending on cell line growth rate. After overnight incubation, test compound was added to each well at various concentrations in 50 μL of culture medium. […] Total fluorescence per well was then measured using DIMSCAN, and the results were expressed as the ratio of the fluorescence in treated wells to the fluorescence in untreated wells (survival fraction).
A general note: Tetrazolium dyes change colour on reduction, which living cells bring about.

Data set [2] relates to TOV112D. Kind of data set: Cytotoxicity assay, TOV112D. It is filed as cell-based, human. The following applies: read-out: IC50, mean ± SEM. How it is done:
as §1

The test system of data set [3] is OVCAR-3. Put plainly: Cytotoxicity assay, OVCAR-3. It is filed as cell-based, human. The conditions noted are these: read-out: IC50, mean ± SEM. How it is done: as §1
In data set [4] the test system is OVCAR-4. Put plainly: Cytotoxicity assay, OVCAR-4. It is filed as cell-based, human. The following applies: read-out: IC50, mean ± SEM. How it is done:
as §1

Data set [5] relates to UWB1.289. Put plainly: MTT cytotoxicity assay, UWB1.289. The conditions noted are these: UWB1.289, BRCA1-defective, 72 h; read-out: IC50, mean ± SEM. It is filed as cell-based, human. As to the method: as §1
Data set [6] has as its system UWB1.289+BRCA1. Kind of data set: Cytotoxicity assay, UWB1.289+BRCA1. It is filed as cell-based, human. The conditions noted are these: UWB1.289 + BRCA1 (WT), 72 h; read-out: IC50, mean ± SEM. As to the method: as §1
For data set [7], the system named is KB-Gem. Kind of data set: Cytotoxicity assay, KB-Gem. The following applies: gemcitabine-resistant, read-out: IC50, mean ± SEM. It is filed as cell-based, human. How it is done:
as §1

For data set [8], the system named is KB-7D. Put plainly: Cytotoxicity assay, KB-7D. It is filed as cell-based, human. The conditions noted are these: cisplatin-resistant, read-out: IC50, mean ± SEM. As to the method: as §1
The subject of data set [9] is A2780-DDDP. Kind of data set: Cytotoxicity assay, A2780-DDDP. It is filed as cell-based, human. The following applies: cisplatin-resistant, read-out: IC50, mean ± SEM. As to the method:
as §1

Data set [10] has as its system HCC1937. Put plainly: Cytotoxicity assay, HCC1937. The conditions noted are these: HCC1937, BRCA1 mutant, triple negative, 72 h. It is filed as cell-based, human. How it is done: All cell lines were acquired from the American Type Culture Collection (Manassas, Va., USA). Cells were maintained in RPMI 1640 medium (Mediatech) with 10% fetal bovine serum, 2 mM glutamine, and 100 U of penicillin and 100 μg of streptomycin per ml of medium (Sigma) at 37° C. in 5% CO2. To isolate HCC1937+BRCA1 cells, parental HCC1937 cells were transfected with pcDNA3.1 plasmid expressing full-length BRCA1 cDNA. Stable transfectant clones were selected and used for drug sensitivity assays. […] The restoration of BRCA1 expression in the puromycin-resistant cDNA/transfectant cells was evaluated by Western blot analysis.
The MTT cytotoxicity assay was performed by incubating with MTT and monitoring the MTT formazan formed by viable cells with a microplate reader at a wavelength of 560 nm; the survival ratio was determined using the formula: (Atest−Ablank)/(Acontrol−Ablank)×100%. The cytotoxicity was determined in 96-well plates using the semiautomatic fluorescence-based Digital Imaging Microscopy System (DIMSCAN). DIMSCAN uses digital imaging microscopy to quantify viable cells, which selectively accumulate FDA (fluorescein diacetate; Alfa Aesar, Ward Hill, Mass.). […] Total fluorescence per well was then measured using DIMSCAN, and the results were expressed as the ratio of the fluorescence in treated wells to the fluorescence in untreated wells (survival fraction).

In data set [11] the test system is HCC1937+BRCA1. Put plainly: Cytotoxicity assay, HCC1937+BRCA1. It is filed as cell-based, human. The conditions noted are these: HCC1937 + BRCA1, triple negative, 72 h. How it is done:
All cell lines were acquired from the American Type Culture Collection (Manassas, Va., USA). Cells were maintained in RPMI 1640 medium (Mediatech) with 10% fetal bovine serum, 2 mM glutamine, and 100 U of penicillin and 100 μg of streptomycin per ml of medium (Sigma) at 37° C. in 5% CO2. To isolate HCC1937+BRCA1 cells, parental HCC1937 cells were transfected with pcDNA3.1 plasmid expressing full-length BRCA1 cDNA. Stable transfectant clones were selected and used for drug sensitivity assays. For stable transfection, cells at 30-40% confluence were incubated overnight with […] of plasmid DNA, using FUGENE® 6 transfectin reagent (Roche Molecular Biochemical, Monza, Italy) according to the manufacturer's instructions. Cells were then selected in puromycin (1 μg/ml) (Invitrogen Life Technologies, La Jolla, Calif., USA). After 20 to 30 days, viable puromycin-resistant colonies from HCC1937 transfections were expanded and screened. The clones that stably expressed puromycin and retained growth potential were assayed for BRCA1 expression by Western blot analysis. The restoration of BRCA1 expression in the puromycin-resistant cDNA/transfectant cells was evaluated by Western blot analysis.
The MTT cytotoxicity assay was performed by incubating with MTT and monitoring the MTT formazan formed by viable cells with a microplate reader at a wavelength of 560 nm; the survival ratio was determined using the formula: (Atest−Ablank)/(Acontrol−Ablank)×100%. The cytotoxicity was determined in 96-well plates using the semiautomatic fluorescence-based Digital Imaging Microscopy System (DIMSCAN). DIMSCAN uses digital imaging microscopy to quantify viable cells, which selectively accumulate FDA (fluorescein diacetate; Alfa Aesar, Ward Hill, Mass.). DIMSCAN is capable of measuring cytotoxicity over a 4 log dynamic range by quantifying total fluorescence per well (which is proportional to the number of viable cells) after elimination of the background fluorescence by digital thresholding and eosin Y (Mallinckrodt Baker, Center Valley, Pa.) quenching. […]

Data set [12] has as its system SKBR3. Kind of data set: Cytotoxicity assay, SKBR3. It is filed as cell-based, human. The following applies: SKBR3, ER− PR(−) HER2+. How it is done:
as §1

Data set [13] has as its system PARP1. Kind of data set: PARP1 protein expression by Western blot. The conditions noted are these: HCC1937 cells irrespective of BRCA1 status, 4 h. It is filed as cell-based, human. How it is done:
FIGS. 3A-3B. […] (FIG. 3A): the effect of COH29 on PARP1 activity in isogenic pairs of breast (HCC1937) and ovarian (UWB1.289) cancer cell lines expressing mutant or wt BRCA1 (wt=+BRCA1 in each case) was assessed in duplicate using procedures described in Materials & Methods; FIG. 3B: the effect of COH29 on PARP1 protein expression in the isogenic HCC1937/HCC1937+BRCA1 cell lines was assessed by Western blot analysis using anti-human PARP1 antibody as the primary antibody. Loading control is β-actin.
For subcellular fractionation, cells were trypsinized and washed with cold PBS solution twice. […] Following centrifugation at 1,000 g for 5 min, the supernatant was collected (i.e., cytoplasmic fraction) and pellets were washed with the same buffer twice. The washed samples were extracted for 40 min on ice with fractionation buffer containing 0.5% NP-40 for nuclear fraction. All the samples were sonicated and clarified by centrifugation at 16,000 g for 15 min. Protein concentrations of all fractions were determined with Bio-Rad Protein Assay (Bio-Rad Laboratories, Hercules, Calif.). Immunoblotting was performed as described previously (21,22). Briefly, equal amounts of boiled protein samples were subjected to SDS-polyacrylamide gel electrophoresis (PAGE) and transferred onto nitrocellulose membranes (Bio-Rad Laboratories). Membranes were blocked for 1 hour in 3% BSA in Tris buffered saline containing 0.05% Tween 20 (TBST) and incubated for 1 hour with primary antibody (1:500 or 1:1000) diluted in TBST containing 1% BSA. After two washes with TBST, membranes were incubated for 1 hour with horseradish peroxidase-conjugated secondary Abs (1:3000 dilution) at room temperature. The immunoblots were visualized on film with the West-Q chemi-luminescence kit (GenDEPOT, Barker, Tex.).
(In general: In western blotting, separated proteins are transferred to a membrane and probed.)

For data set [14], the system named is wild-type zebrafish embryos. Kind of data set: Zebrafish genotoxicity assay. It is filed as in vivo, Danio rerio. The following applies: HU 0-50 mM. How it is done:
The PARP1 activity was determined using the PARP1 Chemiluminescent Assay Kit (BPS Bioscience, San Diego) according to the manufacturer's protocol. Briefly, the ribosylation reaction was carried out with activated DNA in PARP assay buffer using test inhibitor, positive control, substrate control and blank reactions, for 1 hour at 25° C. Detection was by streptavidin-HRP with chemiluminescent substrate A and B read in a luminometer. NZebrafish (Danio rerio) were obtained from zebrafish Core facility of Taipei Medical University and maintained at 28° C. on a 14 h light/10 h dark cycle. Embryos were incubated at 28° C. and different developmental stages were determined as described (25). Wild-type embryos were treated with different concentrations of HU (0, 5, 10, 20, 50 mM) or COH29 (0, 10, 20, 50, 100 μM) at 20 hpf to evaluate the mutagenic effect. Fifteen embryos were treated per well condition. […] Embryos were observed using an Olympus IX70-FLA inverted fluorescence microscope. Images were taken using SPOT digital camera system (Diagnostic Instruments, Sterling Heights, Mich., USA) and assembled with Image) software (26).
To assess the genotoxicity of COH29, wild-type zebrafish embryos were treated from 1 to 7 dpf (day post-fertilization) with a range of doses of COH29 (0-100 μM) and compared to embryos similarly treated with HU (0-50 mM) which is known to cause developmental defects.

As for `N.N.[Cl][Pt][Cl]` [Cisplatin], the IC50 – broadly, the concentration that inhibits the measured activity by half – worked out at 1570 ± 290 nM in data set [1]; 1320 ± 200 nM in [2]; 1640 ± 40 nM in [3]; 2250 ± 250 nM in data set [4]; 1430 ± 870 nM in data set [5]; 7400 ± 2020 nM in data set [6]. The IC50 in data set [7] turned out to be 380 ± 30 nM; in data set [8] it was 7500 ± 300 nM; in data set [9] it was 5020 ± 1180 nM; in data set [10], 2460 ± 110 nM; in data set [11] it was 2930 ± 550 nM; in [12] it was 990 ± 240 nM.

Take `C[C@]1(c2nc3c(C(N)=O)cccc3[nH]2)CCCN1` [ABT-888, reference compound]: the PARP1 protein level result in [13] is “significant reduction”.

For `NC(=O)NO` [HU, hydroxyurea, reference compound], the “number of mutant embryos” value in [14] was “dose-dependent increase”. The developmental defects result in [14] (embryos treated 1 to 7 dpf, COH29 0-100 μM) is “caused defects in eyes and heart by 4 dpf”.

The values are drawn from patent US20210267948A1, “TREATMENT OF CANCER” (CITY OF HOPE, priority 2017, published 2021).
